One data set deals with T1, TYK2-JH2 (Homo sapiens, UniProt P29597).
T1 construct: TYK JH2 enzyme mix (ChemPartner: CP20210818A-BV); purchased ChemPartner CP20210818A-BV
Briefly: TYK2-JH2 HTRF binding assay (ligand efficiency). To be noted: calculated from binding-assay IC50 (Equation 1). In a few lines:
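HTRF competition binding: 0.5 nM His-tagged TYK2 JH2 preincubated 10 min at room temperature with compound (final 0.1 to 0.000005 μM), then 35 nM tracer and anti-6HIS Tb cryptate added for 60 min. Buffer 20 mM HEPES pH 7.5, 10 mM MgCl2, 0.01% Triton X-100, 1 mM DTT; TR-FRET Ex340/Em495/520. Ligand efficiency derived from binding IC50.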

Data set [1] is described as follows: Mouse plasma pharmacokinetics, PO 5 mg/kg. The class given is in vivo. The procedure:
The following example describes the methods used to evaluate the pharmacokinetics of TYK2 inhibitors in vivo following dosing of a compound of the invention.
The pharmacokinetics of test compounds were evaluated in either male CD-1 mice or male C57BL/6 mice when administered by oral gavage and IV bolus injection. The animals were allowed free access to food and water before administration. The plasma samples were analyzed by LC-MS/MS and the concentration of test compound at each time point was determined by linear regression. Pharmacokinetic parameters were calculated from the plasma concentrations by non-compartmental modeling using WinNonlin 8.2.
Oral composition. To prepare a pharmaceutical composition for oral delivery, the test articles described herein were dissolved in DMSO and then mixed with necessary volume of PEG400 followed by […] in water or 50% Kolliphor HS 15 in saline to provide the final concentrations of 0.5 mg/mL or 1 mg/mL (Table 8). The resultant mixtures were suitable for oral administration.
The PK parameters measured in mouse plasma after treatment with TYK2 inhibitor compounds via PO (oral administration) at 5 mg/kg are summarized below in Tables 9-11.

Another data set concerns GM-CSF induced pSTAT5. Kind of data set: GM-CSF induced pSTAT5 assay in CellSensor irf1-bla TF-1 cells. The class given is cell-based. To be noted: Homo sapiens, GM-CSF 1 ng/mL, read-out: Cellular selectivity (GM-CSF induced pSTAT5). On the procedure: The CellSensor irfl-bla TF-1 cell line (LifeTechnologies, K1657) was cultured in RPMI 1640 Medium (Invitrogen 72400-047), 10% Fetal Bovine Serum (Invitrogen, 26400044), 1 mM Sodium pyruvate (Life Technologies, 11360039), 1% MEM NEAA (Life Technologies, 11140-035), 2 ng/ml of human recombinant GM-CSF (Fisher, PHC2015), 1% Penicillin/Streptomycin (Life Technologies, 15140-122) and 5 µg/ml of Blasticidin (ThermoFisher, A1113903).
The cell line was seeded in a T75 flask at 13×10^6 cells/50 mL in starvation medium (Opti-MEM™ I Reduced Serum Medium, no phenol red (Life Technologies, 11058-021), 1 mM Na pyruvate (Life Technologies, 11360039), 1% MEM NEAA (Life Technologies, 11140-035), and 1% Penicillin/Streptomycin (Life Technologies, 15140-122)) for 16 hours at 37° C. under 5% CO2 the day before the assay.
For the assay, CellSensor irfl-bla TF-1 cells were seeded at 30 000 cells/32 μL (starvation medium)/well in a 384-well plate.
Compounds were added on the cells in 4 μL (starvation medium)/well at 10× the final concentration. They were incubated for 30 minutes at 37° C.
Human recombinant carrier-free GM-CSF (ThermoFisher, ref PHC2015) was added to the wells in 4 μL (starvation medium)/well at 10×. The final concentration was 1 ng/mL. Control wells without GM-CSF treatment were added. Plates were incubated for 5 hours at 37° C.
6× LiveBlazer-FRET substrate (Invitrogen, K1085) was added to the wells at 8 μL/well. The substrate was prepared shortly before use by mixing 6 μL of solution A and 60 μL of solution B to 934 μL of solution C. Plates were incubated for 2.5 hours at room temperature in the dark. The plates were read on an Envision (Perkin Elmer) with an excitation at a wavelength of 409 nm and two wavelengths for the emission 520 nm and 450 nm. The ratio between the […] emission was used to calculate the IC50s.
The IC50 for the inhibition of pSTAT5 was calculated with the XLfit software using the 4 Parameter Logistic Model or Sigmoidal Dose-Response Model (model 205).

The subject of data set [2] is anti-CD40-induced inflammatory bowel disease (IBD). Briefly: Anti-CD40-induced mouse model of inflammatory bowel disease (IBD). The class given is in vivo, RAGN12 mice. The conditions noted are these: for colon histopathology scores / colon weight-to-length ratio: 7-day anti-CD40 IBD model. On the procedure:
This study was conducted in accordance with the Inotiv Boulder test facility standard operating procedures (SOPs), the World Health Organization Quality Practices in Basic Biomedical Research guidelines, and in compliance with all state and federal regulations, including USDA Animal Welfare Act 9 CFR Parts 1-3. Federal Register 39129, Jul. 22, 1993. This study was conducted in accordance with The Guide for the Care & Use of Laboratory Animals (8th Edition) and therefore in accordance with all Inotiv Boulder IACUC approved policies.
Prior to the start of the study, 6-7 week old, RAGN12 mice (Taconics) were acclimated for approximately 4 days. On study day −1, mice were weighed and randomized into treatment groups based on body weight. On study day 0, 200 μg of anti-CD40 monoclonal antibody (BioXcell) was administered intraperitoneally to induce disease. Test articles were dosed orally BID (the exception was the known TYK2 inhibitor at 3 mpk, which was dosed QD, with vehicle administered as the second daily dose). Bodyweight was measured daily on study days 1-6.
On day 7, the study was terminated; mice were anesthetized with Isoflurane and bled to exsanguination followed by cervical dislocation. The entire colon was removed, measured, and weighed. The plasma (for PK) and colon (for histology and cytokine measurements) samples were collected. Histopathology samples were evaluated for edema, inflammation (extent of macrophage, lymphocyte and polymorphonuclear (PMN) cell infiltration), gland loss, erosion, and hyperplasia.
Overall efficacy of test articles is based on a ratio of colon weight to length, and colon histopathology (FIGS. 6A and 6B). Additional readouts of the model support activity of an exemplary compound in IBD (FIG. 6C-6I).

T1 sequence (P29597 589-875 limits assumed): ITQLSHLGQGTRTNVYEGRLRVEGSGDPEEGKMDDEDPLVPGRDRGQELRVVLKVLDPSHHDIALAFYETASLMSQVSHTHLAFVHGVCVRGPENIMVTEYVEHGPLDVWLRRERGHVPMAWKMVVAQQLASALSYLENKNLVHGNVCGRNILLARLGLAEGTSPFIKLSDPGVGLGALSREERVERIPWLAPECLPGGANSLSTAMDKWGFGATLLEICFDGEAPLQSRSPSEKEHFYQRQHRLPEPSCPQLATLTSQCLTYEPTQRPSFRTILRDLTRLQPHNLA

`C[C@@H](c1ccc(Nc2cc(Nc3ncccc3S(C)(=O)=O)ncn2)nc1)N1CC2(COC2)C1` [Compound 1, (S)—N^4-(5-(1-(2-oxa-6-azaspiro[3.3]heptan-6-yl)ethyl)pyridin-2-yl)-N^6-(3-(methylsulfonyl)pyridin-2-yl)pyrimidine-4,6-diamine]: the “Ligand Efficiency” value on TYK2-JH2 is “††† (†††: >0.39)”. In data set [1], the “Half-life (t1/2)” value is given as “†† (††: 1.0-1.5)”, the “Maximum plasma concentration (Cmax)” value is given as “† (†: <800)” and the “Total systemic exposure (AUCinf)” value is listed as “†† (††: 1000-2000)”. Moreover, the IC50 in the data set on GM-CSF induced pSTAT5 is 4 to 10 µM. In data set [2], the colon histopathology scores entry is reported as “inhibition” and the colon weight-to-length ratio result is “inhibition”. Besides, in data set [2] (anti-CD40 IBD model), the “colon weight:length, efficacious dose” value is recorded as 200 mpk.

In the case of `C[C@@H](c1ccc(Nc2cc(Nc3ncc(F)cc3S(C)(=O)=O)ncn2)nc1)N1CC2(COC2)C1` [Compound 2, (S)—N^4-(5-(1-(2-oxa-6-azaspiro[3.3]heptan-6-yl)ethyl)pyridin-2-yl)-N^6-(5-fluoro-3-(methylsulfonyl)pyridin-2-yl)pyrimidine-4,6-diamine], at TYK2-JH2, the “Ligand Efficiency” value is listed as “††† (†††: >0.39)”. Further, in data set [1], the “Half-life (t1/2)” value was “†† (††: 1.0-1.5)”, the “Maximum plasma concentration (Cmax)” value was “††† (†††: >1500)” and the “Total systemic exposure (AUCinf)” value is given as “††† (†††: >2000)”. Moreover, the IC50 in the data set on GM-CSF induced pSTAT5 is above 10 µM. Besides, in data set [2], the colon histopathology scores entry is listed as “inhibition” and the colon weight-to-length ratio entry is listed as “inhibition”.

Values taken from patent US20260048051A1, “TREATMENT OF INFLAMMATORY BOWEL DISEASE” (Atomwise Inc., priority 2024, published 2026).
